Test results taken from patent publication US11053204B2, “Pyrimidinyloxy benzene derivatives as herbicides” (FMC Corporation, priority 2015, dated 2021).

Columns and labels:
Assay type in all cases: in vivo
[1] = test system: blackgrass (Alopecurus myosuroides); experiment: Test C preemergence, plant response rating; details: Preemergence
In short: (§1)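 Visual injury score, 0 = no effect, 100 = complete control, assigned against untreated controls after 13 to 15 d in the greenhouse. Compounds were applied in a surfactant-containing non-phytotoxic solvent mix, preemergence to seeded loam/sand or silt loam soil, or postemergence to 1- to 4-leaf plants (2 to 18 cm).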

[2] = test system: wheat (winter wheat, Triticum aestivum); experiment: Test C preemergence, plant response rating; details: Preemergence
In short: as §1

[3] = test system: lambsquarters (Chenopodium album); experiment: Test C preemergence, plant response rating; details: Preemergence
In short: as §1

corn (Zea mays) = experiment: Test C preemergence, plant response rating; details: Preemergence
In short: as §1

[4] = test system: crabgrass, large (large crabgrass, Digitaria sanguinalis); experiment: Test C preemergence, plant response rating; details: Preemergence
In short: as §1

[5] = test system: ryegrass, Italian (Italian ryegrass, Lolium multiflorum); experiment: Test C preemergence, plant response rating; details: Preemergence
In short: as §1

[6] = test system: foxtail, giant (giant foxtail, Setaria faberii); experiment: Test C preemergence, plant response rating; details: Preemergence
In short: as §1

[7] = test system: nutsedge, yellow (yellow nutsedge, Cyperus esculentus); experiment: Test C preemergence, plant response rating; details: Preemergence
In short: as §1

[8] = test system: oilseed rape (Brassica napus); experiment: Test C preemergence, plant response rating; details: Preemergence
In short: as §1

[9] = test system: ragweed (common ragweed, Ambrosia elatior); experiment: Test C preemergence, plant response rating; details: Preemergence
In short: as §1

[10] = test system: velvetleaf (Abutilon theophrasti); experiment: Test C preemergence, plant response rating; details: Preemergence
In short: as §1

[11] = test system: morningglory (Ipomoea coccinea); experiment: Test C preemergence, plant response rating; details: Preemergence
In short: as §1

soybean (Glycine max) = experiment: Test C preemergence, plant response rating; details: Preemergence
In short: as §1

[12] = test system: waterhemp (common waterhemp, Amaranthus rudis); experiment: Test C preemergence, plant response rating; details: Preemergence
In short: as §1

[13] = test system: foxtail, giant (giant foxtail, Setaria faberii); experiment: Test C postemergence, plant response rating; details: for Plant response rating, Foxtail, Giant: scale 0 to 100; for Foxtail, Giant plant response rating: scale 0 to 100 (0 no effect, 100 complete control)
Text: (§2) Seeds of plant species selected from blackgrass (Alopecurus myosuroides), ryegrass, Italian (Italian ryegrass, Lolium multiflorum), wheat (winter wheat, Triticum aestivum), galium (catchweed bedstraw, Galium aparine), corn (Zea mays), crabgrass, large (large crabgrass, Digitaria sanguinalis), foxtail, giant (giant foxtail, Setaria faberii), johnsongrass (Sorghum halepense), lambsquarters (Chenopodium album), morningglory (Ipomoea coccinea), nutsedge, yellow (yellow nutsedge, Cyperus esculentus), pigweed (Amaranthus retroflexus), ragweed (common ragweed, Ambrosia elatior), soybean (Glycine max), barnyardgrass (Echinochloa crus-galli), oilseed rape (Brassica napus), pigweed, palmer (palmer pigweed, Amaranthus palmeri), waterhemp (common waterhemp, Amaranthus rudis), velvetleaf (Abutilon theophrasti), kochia (Kochia scoparia), surinam grass (Brachiaria decumbens), nightshade (eastern black nightshade, Solanum ptycanthum), wild poinsettia (Euphorbia heterophylla), windgrass (Apera spica-venti), and oat, wild (wild oat Avena fatua), were planted into a blend of loam soil and sand or a silt loam soil and treated preemergence with test chemicals formulated in a non-phytotoxic solvent mixture which included a surfactant.
(§3) At the same time, plants selected from these crop and weed species and also chickweed (common chickweed, Stellaria media), buckwheat, wild (wild buckwheat, Polygonum convolvulus), wild mustard (Sinapis arvensis), field poppy (Papaver rhoeas), field violet (Viola arvensis), geranium, cutleaf (cutleaf geranium, Geranium dissectum), Canada thistle (Cirsium arvense), and speedwell (bird's-eye speedwell, Veronica persica), were planted in pots containing Sunshine Redi-Earth® planting medium comprising spaghnum peat moss, vermiculite, starter nutrients and dolomitic limestone and treated with postemergence applications of test chemicals formulated in the same manner. Plants ranged in height from 2 to 18 cm (1- to 4-leaf stage) for postemergence treatments. Treated plants and controls were maintained in a greenhouse for 13 to 15 d, after which time all species were compared to controls and visually evaluated. Plant response ratings, summarized in Table C, are based on a scale of 0 to 100 where 0 is no effect and 100 is complete control. A dash (-) response means no test result.

[14] = test system: chickweed (common chickweed, Stellaria media); experiment: Test C postemergence, plant response rating; details: for Plant response rating, Chickweed: scale 0 to 100; for Chickweed plant response rating: scale 0 to 100 (0 no effect, 100 complete control)
Text: as §2, §3

[15] = test system: morningglory (Ipomoea coccinea); experiment: Test C postemergence, plant response rating; details: for Plant response rating, Morningglory: scale 0 to 100; for Morningglory plant response rating: scale 0 to 100 (0 no effect, 100 complete control)
Text: as §2, §3

N#Cc1cccc(Oc2ncc(Cl)cn2)c1CCCC(F)(F)F [Compound 72]
Plant response rating, Blackgrass ([1]; 62 g ai/ha, scale of 0 to 100): 98
Plant response rating, Blackgrass ([1]; 125 g ai/ha, scale of 0 to 100): 100
Plant response rating, Blackgrass ([1]; 16 g ai/ha, scale 0 to 100): 60
Plant response rating, Blackgrass ([1]; 31 g ai/ha, scale 0 to 100): 98
Plant response rating, Wheat ([2]; 125 g ai/ha, scale of 0 to 100): 80
Plant response rating, Wheat ([2]; 16 g ai/ha, scale 0 to 100): 0
Plant response rating, Wheat ([2]; 31 g ai/ha, scale 0 to 100): 0
Plant response rating, Wheat ([2]; 62 g ai/ha, scale 0 to 100): 30
Plant response rating, Lambsquarters ([3]; 125 g ai/ha, scale of 0 to 100): 100
Plant response rating, Lambsquarters ([3]; 16 g ai/ha, scale 0 to 100): 65
Plant response rating, Lambsquarters ([3]; 31 g ai/ha, scale 0 to 100): 80
Plant response rating, Lambsquarters ([3]; 62 g ai/ha, scale 0 to 100): 90
Plant response rating, Corn (corn (Zea mays); 62 g ai/ha, scale of 0 to 100): 20
Plant response rating, Corn (corn (Zea mays); 125 g ai/ha, scale of 0 to 100): 60
Plant response rating, Corn (corn (Zea mays); 16 g ai/ha, scale 0 to 100): 5
Plant response rating, Corn (corn (Zea mays); 31 g ai/ha, scale 0 to 100): 20
Plant response rating, Crabgrass, Large ([4]; 62 g ai/ha, scale of 0 to 100): 100
Plant response rating, Crabgrass, Large ([4]; 125 g ai/ha, scale of 0 to 100): 100
Plant response rating, Crabgrass, Large ([4]; 16 g ai/ha, scale 0 to 100): 100
Plant response rating, Crabgrass, Large ([4]; 31 g ai/ha, scale 0 to 100): 100
Plant response rating, Ryegrass, Italian ([5]; 125 g ai/ha, scale of 0 to 100): 100
Plant response rating, Ryegrass, Italian ([5]; 16 g ai/ha, scale 0 to 100): 10
Plant response rating, Ryegrass, Italian ([5]; 31 g ai/ha, scale 0 to 100): 45
Plant response rating, Ryegrass, Italian ([5]; 62 g ai/ha, scale 0 to 100): 45
Plant response rating, Foxtail, Giant ([6]; 62 g ai/ha, scale of 0 to 100): 75
Plant response rating, Foxtail, Giant ([6]; 125 g ai/ha, scale of 0 to 100): 100
Plant response rating, Foxtail, Giant ([6]; 16 g ai/ha, scale 0 to 100): 55
Plant response rating, Foxtail, Giant ([6]; 31 g ai/ha, scale 0 to 100): 80
Plant response rating, Nutsedge, Yellow ([7]; 125 g ai/ha, scale of 0 to 100): 0
Plant response rating, Nutsedge, Yellow ([7]; 16 g ai/ha, scale 0 to 100): 0
Plant response rating, Nutsedge, Yellow ([7]; 31 g ai/ha, scale 0 to 100): 0
Plant response rating, Nutsedge, Yellow ([7]; 62 g ai/ha, scale 0 to 100): 0
Plant response rating, Oilseed Rape ([8]; 125 g ai/ha, scale of 0 to 100): 100
Plant response rating, Oilseed Rape ([8]; 16 g ai/ha, scale 0 to 100): 5
Plant response rating, Oilseed Rape ([8]; 31 g ai/ha, scale 0 to 100): 80
Plant response rating, Oilseed Rape ([8]; 62 g ai/ha, scale 0 to 100): 80
Plant response rating, Ragweed ([9]; 125 g ai/ha, scale of 0 to 100): 45
Plant response rating, Ragweed ([9]; 16 g ai/ha, scale 0 to 100): 0
Plant response rating, Ragweed ([9]; 31 g ai/ha, scale 0 to 100): 0
Plant response rating, Ragweed ([9]; 62 g ai/ha, scale 0 to 100): 40
Plant response rating, Velvetleaf ([10]; 125 g ai/ha, scale of 0 to 100): 100
Plant response rating, Velvetleaf ([10]; 16 g ai/ha, scale 0 to 100): 10
Plant response rating, Velvetleaf ([10]; 31 g ai/ha, scale 0 to 100): 60
Plant response rating, Velvetleaf ([10]; 62 g ai/ha, scale 0 to 100): 55
Plant response rating, Morningglory ([11]; 125 g ai/ha, scale of 0 to 100): 95
Plant response rating, Morningglory ([11]; 16 g ai/ha, scale 0 to 100): 10
Plant response rating, Morningglory ([11]; 31 g ai/ha, scale 0 to 100): 40
Plant response rating, Morningglory ([11]; 62 g ai/ha, scale 0 to 100): 55
Plant response rating, Soybean (soybean (Glycine max); 125 g ai/ha, scale of 0 to 100): 90
Plant response rating, Soybean (soybean (Glycine max); 16 g ai/ha, scale 0 to 100): 0
Plant response rating, Soybean (soybean (Glycine max); 31 g ai/ha, scale 0 to 100): 0
Plant response rating, Soybean (soybean (Glycine max); 62 g ai/ha, scale 0 to 100): 15
Plant response rating, Waterhemp ([12]; 125 g ai/ha, scale of 0 to 100): 100
Plant response rating, Waterhemp ([12]; 16 g ai/ha, scale 0 to 100): 100
Plant response rating, Waterhemp ([12]; 31 g ai/ha, scale 0 to 100): 100
Plant response rating, Waterhemp ([12]; 62 g ai/ha, scale 0 to 100): 100
Plant response rating, Foxtail, Giant ([13]; 16 g ai/ha): 30
Plant response rating, Foxtail, Giant ([13]; 31 g ai/ha): 30
Foxtail, Giant plant response rating ([13]; 62 g ai/ha): 20
Foxtail, Giant plant response rating ([13]; 125 g ai/ha): 20
Plant response rating, Chickweed ([14]; 16 g ai/ha): 65
Plant response rating, Chickweed ([14]; 31 g ai/ha): 85
Chickweed plant response rating ([14]; 62 g ai/ha): 90
Chickweed plant response rating ([14]; 125 g ai/ha): 98
Plant response rating, Morningglory ([15]; 16 g ai/ha): 75
Plant response rating, Morningglory ([15]; 31 g ai/ha): 65
Morningglory plant response rating ([15]; 62 g ai/ha): 40
Morningglory plant response rating ([15]; 125 g ai/ha): 70
